Experiment [1] relates to HEK293 cells. Kind of experiment: Ribosome profiling (deep sequencing of ribosome-protected mRNA fragments, GTI-seq) of drug-treated cells. Type of experiment: cell-based, Human. As to conditions: 30 min, FIG. 1C; for distribution of RPF reads relative to the annotated start codon: 100 μM CHX, 50 μM LTM or 2 μg/ml harringtonine, metagene analysis, 1D. An excerpt:
FIGS. 1A-D show the experimental strategy of GTI-seq using ribosome E-site translation inhibitors. Specifically, FIG. 1A is a schematic diagram of the experimental design for GTI-seq. Translation inhibitors cycloheximide (“CHX”) and lactimidomycin (“LTM”) bind to the ribosome E-site, resulting in inhibition of translocation. While CHX binds to all translating ribosomes (FIG. 1A, left panel), LTM preferably incorporates into the initiating ribosomes when the E-site is free of tRNA (FIG. 1A, right panel). FIG. 1B is a schematic illustration showing ribosome profiling using CHX and LTM side-by-side, which allows distinguishing the initiating ribosome from the elongating one. FIG. 1C is a graph showing data related to HEK293 cells being treated with either DMSO, 100 μM CHX, or 50 μM LTM for 30 min before ribosome profiling. Normalized RPF reads were averaged across the entire transcriptome, aligned at either their start site or stop codon. FIG. 1D presents two graphs showing metagene analysis of RPFs obtained from HEK293 cells treated with either harringtonine (FIG. 1D, left panel) or LTM (FIG. 1D, right panel). All mapped reads were aligned at the annotated start codon AUG, and the reads density at each nucleotide position was averaged using the P-site of RPFs.
HEK293 or MEF cells were treated with 100 μM CHX, 50 μM LTM, 2 μg/ml harringtonine or DMSO at 37° C. for 30 min. Cells were lysed in polysome buffer and cleared lysates were separated by sedimentation through sucrose gradients. Collected polysome fractions were digested with RNase I and the RPF fragments were size selected and purified by gel extraction. After the construction of sequencing library from these fragments, deep sequencing was performed using IlluminaHiSEQ. The trimmed RPF reads with final lengths of 26-29 nt were aligned to the RefSeq transcript sequences by Bowtie-0.12.7 allowing one mismatch. A TIS position on individual transcript was called if the normalized LTM reads density at the every nucleotide position subtracting with that of CHX was well above the background. In analysis of non-coding RNA, only reads unique to single ncRNA were used. To experimentally validate the identified TIS codons, specific genes encompassing both the 5′UTR and the CDS were amplified by RT-PCR from total cellular RNAs extracted from HEK293 cells. The resultant cDNAs were cloned into pcDNA3.1 containing c-myc tag at the COOH-terminus. After transfection into HEK293 cells, whole cell lysates were used for immunoblotting using anti-myc antibody.
Human HEK293 and mouse embryonic fibroblast (“MEF”) were maintained in Dulbecco's Modified Eagle's Medium (“DMEM”) with 10% fetal bovine serum (“FBS”). Cycloheximide was purchased from Sigma and harringtonine from LKT Laboratories. […]

Experiment [2] concerns HEK293 cells. As to the kind of experiment: Polysome profiling by sucrose gradient sedimentation of drug-treated cells. Type of experiment: cell-based, Human. As to conditions: 100 μM CHX or 50 μM LTM, 30 min, compared to no-drug treatment (DMSO), FIG. 7. The procedure: FIG. 7 is a series of graphs showing polysome profile analysis in cells treated with ribosome E-site translation inhibitors. In particular, HEK293 cells were pre-treated with equal volume of DMSO, 100 μM CHX, or 50 μM LTM for 30 min followed by sucrose gradient sedimentation. Both 80S monosome and polysome peaks are indicated.
HEK293 or MEF cells were treated with 100 μM CHX, 50 μM LTM, 2 μg/ml harringtonine or DMSO at 37° C. for 30 min. Cells were lysed in polysome buffer and cleared lysates were separated by sedimentation through sucrose gradients. Collected polysome fractions were digested with RNase I and the RPF fragments were size selected and purified by gel extraction. […] The trimmed RPF reads with final lengths of 26-29 nt were aligned to the RefSeq transcript sequences by Bowtie-0.12.7 allowing one mismatch. A TIS position on individual transcript was called if the normalized LTM reads density at the every nucleotide position subtracting with that of CHX was well above the background. In analysis of non-coding RNA, only reads unique to single ncRNA were used. […]
Sucrose solution was prepared in polysome buffer (pH 7.4, 10 mM HEPES, 100 mM KCl, 5 mM MgCl2). […] Separated samples were fractionated at 0.750 ml/min through a fractionation system (Isco) that continually monitored OD254 values. […]

Regarding `C/C(=C\[C@H](C)C(=O)C[C@H](O)CC1CC(=O)NC(=O)C1)[C@@H]1OC(=O)/C=C/CC/C=C/C=C\[C@@H]1C` [LTM, lactimidomycin], the “effect on ribosome (RPF) density at the stop codon” value in experiment [1] (50 μM LTM, versus untreated cells or CHX) is “eliminated the excess of ribosomes seen at the stop codon”. Besides, the “distribution of RPF reads relative to the annotated start codon” value in experiment [1] is “pronounced single peak located at the −12 nucleotide (nt) position relative to the annotated start codon”. Moreover, the “effect on polysome profile (80S monosome and polysome peaks)” value in experiment [2] is “large increase in monosome accompanied by a depletion of polysomes”.
For `C[C@@H]1C[C@@H]([C@H](O)CC2CC(=O)NC(=O)C2)C(=O)[C@@H](C)C1` [CHX, cycloheximide], the “distribution of RPF reads relative to the annotated start codon” value in experiment [1] is on record as “an excess of RPFs at the beginning of ORFs in addition to the body of CDS”. Also, the “effect on polysome profile (80S monosome and polysome peaks)” value in experiment [2] is “slightly stabilized the polysomes”.
Turning to `COC(=O)C[C@](O)(CCC(C)(C)O)C(=O)O[C@@H]1C(OC)=C[C@]23CCCN2CCc2cc4c(cc2[C@H]13)OCO4` [harringtonine], the “distribution of RPF reads relative to the annotated start codon” value in experiment [1] was “a substantial fraction of RPFs accumulated in regions downstream of the start codon”.
